Assay results: ChEMBL document CHEMBL1201861, “Genomics of Drug Sensitity in Cancer screening data, Wellcome Trust Sanger Institute”
Counter-ions that a name gives are not always drawn.

What was measured:
MEL-HO = test: cells; format: functional, cell-based, Homo sapiens; details: Homo sapiens, MEL-HO
Description: SANGER: Inhibition of human MEL-HO cell growth in a cell viability assay.

RD = test: cells; format: functional, cell-based, Homo sapiens; details: Homo sapiens, RD
Description: SANGER: Inhibition of human RD cell growth in a cell viability assay.

NCI-H1882 = test: cells; format: functional, cell-based, Homo sapiens; details: Homo sapiens, NCI-H1882;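 further: growth inhibition of the cell line, determined with a viability assay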
Description: SANGER: Inhibition of human NCI-H1882 cell growth in a cell viability assay.

C2BBe1 = test: cells; format: functional, cell-based, Homo sapiens; details: Homo sapiens, C2BBe1;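 further: growth inhibition of C2BBe1 cells, read out through a viability assay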
Description: SANGER: Inhibition of human C2BBe1 cell growth in a cell viability assay.

LAMA-84 = test: cells; format: functional, cell-based, Homo sapiens; details: Homo sapiens, LAMA-84;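 further: growth inhibition of LAMA-84 cells, read out with a cell viability assay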
Description: SANGER: Inhibition of human LAMA-84 cell growth in a cell viability assay.

NCI-H2087 = test: cells; format: functional, cell-based, Homo sapiens; details: Homo sapiens, NCI-H2087;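 further: growth inhibition determined with a cell viability readout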
Description: SANGER: Inhibition of human NCI-H2087 cell growth in a cell viability assay.

SW-620 = test: cells; format: functional, cell-based, Homo sapiens; details: Homo sapiens, SW-620;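 further: growth inhibition of human SW-620 cells, measured by a cell viability assay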
Description: SANGER: Inhibition of human SW620 cell growth in a cell viability assay.

RPMI 8402 = test: SANGER: Inhibition of human RPMI-8402 cell growth in a cell viability assay.; format: functional, cell-based; details: Homo sapiens, RPMI 8402; read-out: IC50
S-117 = test: cells; format: functional, cell-based, Homo sapiens; details: Homo sapiens, S-117
Description: SANGER: Inhibition of human S-117 cell growth in a cell viability assay.

ES3 = test: cells; format: functional, cell-based, Homo sapiens; details: Homo sapiens, ES3;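 further: growth inhibition of ES3 cells, read out with a cell viability assay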
Description: SANGER: Inhibition of human ES3 cell growth in a cell viability assay.

SNU-16 = test: cells; format: functional, cell-based, Homo sapiens; details: Homo sapiens, SNU-16;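 further: growth inhibition of human SNU-16 cells, determined with a cell viability readout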
Description: SANGER: Inhibition of human NCI-SNU-16 cell growth in a cell viability assay.

G-401 = test: cells; format: functional, cell-based, Homo sapiens; details: Homo sapiens, G-401
Description: SANGER: Inhibition of human G-401 cell growth in a cell viability assay.

647-V = test: cells; format: functional, cell-based, Homo sapiens; details: Homo sapiens, 647-V;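 further: growth inhibition of 647-V cells, read out with a cell viability assay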
Description: SANGER: Inhibition of human 647-V cell growth in a cell viability assay.

VM-CUB-1 = test: cells; format: functional, cell-based, Homo sapiens; details: Homo sapiens, VM-CUB-1;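 further: cell viability assay measuring growth inhibition of the human VM-CUB-1 cell line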
Description: SANGER: Inhibition of human VM-CUB-1 cell growth in a cell viability assay.

PFSK-1 = test: cells; format: functional, cell-based, Homo sapiens; details: Homo sapiens, PFSK-1;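 further: cell viability assay measuring how strongly compounds suppress growth of human PFSK-1 cells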
Description: SANGER: Inhibition of human PFSK-1 cell growth in a cell viability assay.

MDA-MB-231 = test: cells; format: functional, cell-based, Homo sapiens; details: Homo sapiens, MDA-MB-231
Description: SANGER: Inhibition of human MDA-MB-231 cell growth in a cell viability assay.

CAL-120 = test: cells; format: functional, cell-based, Homo sapiens; details: Homo sapiens, CAL-120
Description: SANGER: Inhibition of human CAL-120 cell growth in a cell viability assay.

Lu-65 = test: cells; format: functional, cell-based, Homo sapiens; details: Homo sapiens, Lu-65;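 further: growth inhibition of Lu-65 cancer cells, read out by a cell viability assay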
Description: SANGER: Inhibition of human LU-65 cell growth in a cell viability assay.

SNU-387 = test: cells; format: functional, cell-based, Homo sapiens; details: Homo sapiens, SNU-387
Description: SANGER: Inhibition of human SNU-387 cell growth in a cell viability assay.

Ca-Ski = test: cells; format: functional, cell-based, Homo sapiens; details: Homo sapiens, Ca-Ski;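 further: cell viability assay measuring inhibition of Ca-Ski cell growth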
Description: SANGER: Inhibition of human Ca-Ski cell growth in a cell viability assay.

NB69 = test: cells; format: functional, cell-based, Homo sapiens; details: Homo sapiens, NB69;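 further: growth inhibition of NB69 cells, determined by a cell viability assay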
Description: SANGER: Inhibition of human NB69 cell growth in a cell viability assay.

ES1 = test: cells; format: functional, cell-based, Homo sapiens; details: Homo sapiens, ES1;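 further: growth inhibition of ES1 cells, read out with a cell viability assay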
Description: SANGER: Inhibition of human ES1 cell growth in a cell viability assay.

NCI-H520 = test: cells; format: functional, cell-based, Homo sapiens; details: Homo sapiens, NCI-H520;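 further: growth inhibition of NCI-H520 cells, measured by a cell viability assay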
Description: SANGER: Inhibition of human NCI-H520 cell growth in a cell viability assay.

CP66-MEL = test: cells; format: functional, cell-based, Homo sapiens; details: Homo sapiens, CP66-MEL;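 further: growth inhibition of CP66-MEL cells determined in a cell viability assay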
Description: SANGER: Inhibition of human CP66-MEL cell growth in a cell viability assay.

HCC38 = test: cells; format: functional, cell-based, Homo sapiens; details: Homo sapiens, HCC38;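 further: cell viability assay on the human HCC38 cell line, with IC50 marking the concentration that inhibits cell growth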
Description: SANGER: Inhibition of human HCC38 cell growth in a cell viability assay.

NB6 = test: cells; format: functional, cell-based, Homo sapiens; details: Homo sapiens, NB6
Description: SANGER: Inhibition of human NB6 cell growth in a cell viability assay.

NCI-H1522 = test: cells; format: functional, cell-based, Homo sapiens; details: Homo sapiens, NCI-H1522;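 further: growth inhibition of NCI-H1522 cells, read out with a cell viability assay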
Description: SANGER: Inhibition of human NCI-H1522 cell growth in a cell viability assay.

DMS-79 = test: cells; format: functional, cell-based, Homo sapiens; details: Homo sapiens, DMS-79
Description: SANGER: Inhibition of human DMS-79 cell growth in a cell viability assay.

MZ1-PC = test: cells; format: functional, cell-based, Homo sapiens; details: Homo sapiens, MZ1-PC;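 further: cell viability assay measuring growth inhibition of human MZ1-PC cells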
Description: SANGER: Inhibition of human MZ1-PC cell growth in a cell viability assay.

JEG-3 = test: cells; format: functional, cell-based, Homo sapiens; details: Homo sapiens, JEG-3;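 further: growth inhibition of human JEG-3 cells, read out with a cell viability assay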
Description: SANGER: Inhibition of human JEG-3 cell growth in a cell viability assay.

SF-295 = test: cells; format: functional, cell-based, Homo sapiens; details: Homo sapiens, SF-295;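 further: growth inhibition of SF-295 cells, read out with a cell viability assay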
Description: SANGER: Inhibition of human SF295 cell growth in a cell viability assay.

HCC2218 = test: cells; format: functional, cell-based, Homo sapiens; details: Homo sapiens, HCC2218;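 further: cell viability assay read-out, with IC50 given as the concentration that inhibits growth of the cell line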
Description: SANGER: Inhibition of human HCC2218 cell growth in a cell viability assay.

SW48 = test: cells; format: functional, cell-based, Homo sapiens; details: Homo sapiens, SW48;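 further: growth inhibition of SW48 cells, read out with a cell viability assay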
Description: SANGER: Inhibition of human SW48 cell growth in a cell viability assay.

MKN-1 = test: cells; format: functional, cell-based, Homo sapiens; details: Homo sapiens, MKN-1;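 further: growth inhibition of human MKN1 cells, read out by a cell viability measurement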
Description: SANGER: Inhibition of human MKN1 cell growth in a cell viability assay.

RO82-W-1 = test: cells; format: functional, cell-based, Homo sapiens; details: Homo sapiens, RO82-W-1;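 further: growth inhibition of human RO82-W-1 cells, measured with a cell viability assay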
Description: SANGER: Inhibition of human RO82-W-1 cell growth in a cell viability assay.

RPMI-8226 = test: cells; format: functional, cell-based, Homo sapiens; details: Homo sapiens, RPMI-8226
Description: SANGER: Inhibition of human RPMI-8226 cell growth in a cell viability assay.

HOS = test: cells; format: functional, cell-based, Homo sapiens; details: Homo sapiens, HOS
Description: SANGER: Inhibition of human HOS cell growth in a cell viability assay.

NB1 = test: cells; format: functional, cell-based, Homo sapiens; details: Homo sapiens, NB1;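 further: reduction of NB1 cell proliferation, read out with a viability assay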
Description: SANGER: Inhibition of human NB1 cell growth in a cell viability assay.

LU-165 = test: cells; format: functional, cell-based, Homo sapiens; details: Homo sapiens, LU-165
Description: SANGER: Inhibition of human LU-165 cell growth in a cell viability assay.

SH-4 = test: cells; format: functional, cell-based, Homo sapiens; details: Homo sapiens, SH-4;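 further: growth inhibition of SH-4 cells, read out with a cell viability assay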
Description: SANGER: Inhibition of human SH-4 cell growth in a cell viability assay.

BHT-101 = test: cells; format: functional, cell-based, Homo sapiens; details: Homo sapiens, BHT-101
Description: SANGER: Inhibition of human BHT-101 cell growth in a cell viability assay.

SNU-C1 = test: cells; format: functional, cell-based, Homo sapiens; details: Homo sapiens, SNU-C1;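 further: growth inhibition of SNU-C1 human cells, read out by a cell viability assay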
Description: SANGER: Inhibition of human SNU-C1 cell growth in a cell viability assay.

HL-60 = test: cells; format: functional, cell-based, Homo sapiens; details: Homo sapiens, HL-60;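 further: growth inhibition of human HL-60 cells, read out with a cell viability assay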
Description: SANGER: Inhibition of human HL-60 cell growth in a cell viability assay.

NCI-H1755 = test: cells; format: functional, cell-based, Homo sapiens; details: Homo sapiens, NCI-H1755;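 further: cell viability readout used to measure growth inhibition of NCI-H1755 cells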
Description: SANGER: Inhibition of human NCI-H1755 cell growth in a cell viability assay.

KYSE-180 = test: cells; format: functional, cell-based, Homo sapiens; details: Homo sapiens, KYSE-180;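 further: growth inhibition of KYSE-180 cells, read out with a cell viability assay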
Description: SANGER: Inhibition of human KYSE-180 cell growth in a cell viability assay.

COLO-824 = test: cells; format: functional, cell-based, Homo sapiens; details: Homo sapiens, COLO-824
Description: SANGER: Inhibition of human COLO-824 cell growth in a cell viability assay.

EFO-27 = test: cells; format: functional, cell-based, Homo sapiens; details: Homo sapiens, EFO-27;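 further: growth inhibition of EFO-27 cells, read out with a cell viability assay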
Description: SANGER: Inhibition of human EFO-27 cell growth in a cell viability assay.

DU-4475 = test: cells; format: functional, cell-based, Homo sapiens; details: Homo sapiens, DU-4475
Description: SANGER: Inhibition of human DU-4475 cell growth in a cell viability assay.

LB996-RCC = test: cells; format: functional, cell-based, Homo sapiens; details: Homo sapiens, LB996-RCC
Description: SANGER: Inhibition of human LB996-RCC cell growth in a cell viability assay.

COC1=CC(c2cc3ccccc3[nH]2)=N/C1=C\c1[nH]c(C)cc1C [OBATOCLAX MESYLATE]
IC50 (MEL-HO): 0.0235 µM | IC50 (RD): 0.14 µM | IC50 (NCI-H1882): 4.51 µM | IC50 (C2BBe1): 2.42 µM | IC50 (LAMA-84): 2.57 µM | IC50 (NCI-H2087): 0.13 µM | IC50 (SW-620): < 0.0625 µM | IC50 (RPMI 8402): 0.0186 µM | IC50 (S-117): 0.0291 µM | IC50 (ES3): 0.278 µM | IC50 (SNU-16): 13.1 µM | IC50 (G-401): 0.0309 µM | IC50 (647-V): 0.104 µM | IC50 (VM-CUB-1): 0.713 µM | IC50 (PFSK-1): 1.21 µM | IC50 (MDA-MB-231): 0.801 µM | IC50 (CAL-120): 0.296 µM | IC50 (Lu-65): 1.09 µM | IC50 (SNU-387): 0.903 µM | IC50 (Ca-Ski): 0.405 µM | IC50 (NB69): 0.0157 µM | IC50 (ES1): 0.0489 µM | IC50 (NCI-H520): 0.129 µM | IC50 (CP66-MEL): 0.871 µM | IC50 (HCC38): 2.38 µM | IC50 (NB6): 4.43 µM | IC50 (NCI-H1522): 2.02 µM | IC50 (DMS-79): > 16 µM | IC50 (MZ1-PC): 0.108 µM | IC50 (JEG-3): 1.5 µM | IC50 (SF-295): 0.34 µM | IC50 (HCC2218): 2.41 µM | IC50 (SW48): 0.773 µM | IC50 (MKN-1): 0.304 µM | IC50 (RO82-W-1): 2.41 µM | IC50 (RPMI-8226): 0.316 µM | IC50 (HOS): 0.0347 µM | IC50 (NB1): 0.279 µM | IC50 (LU-165): 5.99 µM | IC50 (SH-4): < 0.0625 µM | IC50 (BHT-101): < 0.0625 µM | IC50 (SNU-C1): > 16 µM | IC50 (HL-60): 1.26 µM | IC50 (NCI-H1755): 5.23 µM | IC50 (KYSE-180): 0.0614 µM | IC50 (COLO-824): 0.678 µM | IC50 (EFO-27): 0.34 µM | IC50 (DU-4475): 0.162 µM | IC50 (LB996-RCC): 0.471 µM

COc1cc2ncn(-c3cc(OCc4ccccc4S(C)(=O)=O)c(C#N)s3)c2cc1OC [GSK-319347A]
IC50 (NCI-H1882): > 5 µM | IC50 (C2BBe1): > 5 µM | IC50 (LAMA-84): > 5 µM | IC50 (RPMI 8402): > 5 µM | IC50 (ES3): > 5 µM | IC50 (SNU-16): > 5 µM | IC50 (Lu-65): > 5 µM | IC50 (NB69): > 5 µM | IC50 (ES1): > 5 µM | IC50 (CP66-MEL): > 5 µM | IC50 (NB6): > 5 µM | IC50 (NCI-H1522): > 5 µM | IC50 (DMS-79): > 5 µM | IC50 (MZ1-PC): > 5 µM | IC50 (HCC2218): > 5 µM | IC50 (RPMI-8226): > 5 µM | IC50 (NB1): > 5 µM | IC50 (LU-165): > 5 µM | IC50 (SH-4): > 5 µM | IC50 (SNU-C1): > 5 µM | IC50 (HL-60): > 5 µM | IC50 (COLO-824): > 5 µM | IC50 (DU-4475): > 5 µM | IC50 (LB996-RCC): > 5 µM

N[C@@H](CSC(c1ccccc1)(c1ccccc1)c1ccccc1)C(=O)O [S-TRITYL-L-CYSTEINE]
IC50 (NCI-H1882): 2.08 µM | IC50 (C2BBe1): > 5.12 µM | IC50 (LAMA-84): 3.16 µM | IC50 (RPMI 8402): 1.28 µM | IC50 (ES3): > 5.12 µM | IC50 (SNU-16): > 5.12 µM | IC50 (Lu-65): > 5.12 µM | IC50 (NB69): 1.76 µM | IC50 (ES1): 1.64 µM | IC50 (CP66-MEL): 3.44 µM | IC50 (NB6): 3.91 µM | IC50 (NCI-H1522): > 5.12 µM | IC50 (DMS-79): > 5.12 µM | IC50 (MZ1-PC): 1.63 µM | IC50 (HCC2218): > 5.12 µM | IC50 (RPMI-8226): 1.28 µM | IC50 (NB1): 2.94 µM | IC50 (LU-165): > 5.12 µM | IC50 (SH-4): 2.31 µM | IC50 (SNU-C1): > 5.12 µM | IC50 (HL-60): > 5.12 µM | IC50 (COLO-824): > 5.12 µM | IC50 (DU-4475): 1.51 µM | IC50 (LB996-RCC): 2.9 µM

Cc1ccc(-c2c(C(=O)CCl)n(CCCO)c3ncnc(N)c23)cc1
IC50 (NCI-H1882): > 4 µM | IC50 (C2BBe1): 2.74 µM | IC50 (LAMA-84): > 4 µM | IC50 (RPMI 8402): > 4 µM | IC50 (ES3): > 4 µM | IC50 (SNU-16): > 4 µM | IC50 (Lu-65): > 4 µM | IC50 (NB69): > 4 µM | IC50 (ES1): > 4 µM | IC50 (CP66-MEL): > 4 µM | IC50 (NB6): > 4 µM | IC50 (NCI-H1522): > 4 µM | IC50 (DMS-79): > 4 µM | IC50 (MZ1-PC): 2.92 µM | IC50 (HCC2218): > 4 µM | IC50 (RPMI-8226): > 4 µM | IC50 (NB1): > 4 µM | IC50 (LU-165): > 4 µM | IC50 (SH-4): > 4 µM | IC50 (SNU-C1): > 4 µM | IC50 (HL-60): > 4 µM | IC50 (COLO-824): > 4 µM | IC50 (DU-4475): > 4 µM | IC50 (LB996-RCC): > 4 µM
